Patent US6015790A, “Methods and compositions for treating rheumatoid arthritis” (BASF Aktiengesellschaft, priority 1997, dated 2000)

How the values were obtained:
[1] = tested on: collagen induced arthritis in DBA-1 mice; assay: Collagen induced arthritis, prophylactic model (mean arthritic score); assay type: in vivo; details: 5 mg/kg/day intraperitoneally, day 26 to day 35 post immunization
[2] = tested on: collagen induced arthritis in DBA-1 mice; assay: Collagen induced arthritis, therapeutic model (mean arthritic score, histopathology); assay type: in vivo; details: 5 mg/kg/day intraperitoneally, 21 days from day 48, necropsy day 71, vs vehicle
[3] = tested on: National Cancer Institute's P388 lymphocytic leukemia cell line; details: cited from earlier work

In the case of `C[C@@H]1C[C@H]2[C@@H]3CCC4=CC(=O)C=C[C@]4(C)[C@@]3(F)[C@@H](O)C[C@]2(C)[C@@]1(O)C(=O)CO` [dexamethasone], the “signs of rheumatoid arthritis after end of treatment (mean arthritic score)” value [1] was “exhibited signs of rheumatoid arthritis immediately following the end of treatment”, the “cartilage involvement (cartilage damage, histopathology, scale 0-3)” value [2] was “significantly suppressed” and the “synovitis (synovial inflammation, histopathology, scale 0-3)” value [2] was “significantly suppressed”.

For Dolastatin-15, the “inhibition of cell growth” value [3] is given as “markedly inhibits the growth”.
